Assay results reported in PubChem BioAssay AID179 (DTP/NCI, 2004).
Calls of active or inactive are those of the source.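 How the source made its calls: active means compounds giving half or more protection of infected cells from virus-caused growth loss, again on retest; inactive means the rest.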

Test system: CEM cells HIV-1 protection, formazan growth assay
Assay: NCI AIDS Antiviral Assay
Conditions: for IC50: measured here: growth of uninfected CEM cells
In short: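 Human CEM cells, uninfected and HIV-1-infected, exposed to five drug concentrations; growth measured by soluble formazan assay and scored as percent protection from infection, with protecting compounds retested.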

| Compound | EC50 | IC50 | outcome |
| --- | --- | --- | --- |
| S=c1cn[nH]c2ccc(S)cc12 | > 182 µM | 102 µM |  |
| CCO[C@H]1OC(=O)[C@@H]2C(c3ccc(F)cc3)=NO[C@H]12 | > 135 µM | > 135 µM |  |
| CCCCC[C@H](O)[C@H](C)C=C1SCCCS1 | > 200 µM | 97.7 µM |  |
| CC1Cc2c(nc3n(c2=O)CCCCC3)O1 (stereo not drawn) | > 407 µM | > 407 µM |  |
| NC1=NCC(CN2CCCCC2)O1 (stereo not drawn) | > 200 µM | > 200 µM |  |
| C/C(=N\N(C)C)C(CN(C)C)C(c1ccccc1)c1c(O)c2ccccc2oc1=O (stereo not drawn) | > 100 µM | 91.2 µM |  |
| O=S(=O)([O-])c1ccc2c(c1)-c1nc-2nc2[n-]c(nc3nc(nc4[n-]c(n1)c1ccc(S(=O)(=O)[O-])cc41)-c1cc(S(=O)(=O)[O-])ccc1-3)c1ccc(S(=O)(=O)[O-])cc21.[Cu+2].[Na+] | > 251 µM | 0.603 µM |  |
| Fc1nc(F)nc(-c2c3ccccc3c3n2CCS3)n1 | > 25.1 µM | > 25.1 µM |  |
| NC1=NN(c2ccccc2)C(=O)C1C(=O)C(=O)Nc1nccs1 (stereo not drawn) | > 79.4 µM | > 79.4 µM |  |
| CCC[CH2][Sn]([CH2]CCC)([S]C1=NCCS1)[S]C1=NCCS1 | > 39.8 µM | 0.759 µM |  |
| N#Cc1c(-c2ccccc2)ssc1=S | > 200 µM | 14.1 µM |  |
| CCCCCCCCCCCCC(F)C(=O)OCC1OC(n2cc(C)c(=O)[nH]c2=O)CC1N=[N+]=[N-] (stereo not drawn) | 0.0123 µM | 102 µM |  |
| CSc1c(C)n([O-])c2cc(Cl)c(Cl)cc2[n+]1=O | > 100 µM | 2.82 µM |  |
| CCCCCCCCCCCC(=O)c1c(O)cccc1O | > 17.8 µM | 15.5 µM |  |
| Nc1nncc2[nH]cnc12 | > 200 µM | 10 µM |  |
| O/C(=C\c1nc2ccccc2nc1NC12CC3CC(CC(C3)C1)C2)c1ccc(Br)cc1 | > 200 µM | > 200 µM |  |
| CC(c1ccccc1)N1O[C@]12CC[C@@]1(C)C(CCCC13OCCO3)C2 (stereo partly drawn) |  |  | inactive |
| O=C1c2cccc3cc([N+](=O)[O-])cc(c23)C(=O)N1Cc1ccccc1 | > 200 µM | 5.75 µM |  |
| Cc1nc(SCC(=O)Nc2ccc(Cl)cc2)c2sc(=S)n(-c3ccccc3)c2n1 | > 200 µM | > 200 µM |  |
| Cc1cc2c(cc1C)n1c(N(C)C)[n+]3ccccc3c1c1c3cccc[n+]3c(N(C)C)n21 | > 151 µM | 21.9 µM |  |

| Compound | EC50 | IC50 | outcome |
| --- | --- | --- | --- |
| CNc1cc2oc(=O)cc(C)c2cc1C | > 67.6 µM | > 67.6 µM |  |
| C=CCN1COc2c(cc3c4c(cccc24)C(=O)O3)C1 | > 26.9 µM | 4.27 µM |  |
| COc1c(C)c2c(c(O)c1C/C=C(\C)CCC(=O)O)C(=O)OC2 | > 7.76 µM | 0.0355 µM |  |
| C[N+](C)(CCNC(=O)c1cccc2cc3ccccc3nc12)Cc1ccc([N+](=O)[O-])cc1 | > 200 µM | 97.7 µM |  |
| O=S1CCCCS1 (stereo not drawn) | > 912 µM | 17.4 µM |  |
| O=C(CC1Sc2ccccc2NC1=O)Nc1ccc(Cl)cc1 (stereo not drawn) | > 107 µM | > 107 µM |  |
| CC(C)=C1C=C2CC[C@@H]3[C@](C)(CCC[C@@]3(C)C(=O)O)[C@H]2CC1 | > 200 µM | 105 µM |  |
| CNC(=O)Oc1ccc(Cl)cc1SSc1cc(Cl)ccc1OC(=O)NC | > 200 µM | 8.32 µM |  |
| CCC1C(=O)OC2OC(c3ccccc3)(c3ccccc3)NC21 (stereo not drawn) | > 200 µM | > 100 µM |  |
| C=C1c2nc3ccccc3n2C=C(c2ccc(C)cc2)N1c1ccc(C)cc1 | > 200 µM | 26.9 µM |  |
| O=C(O)CCCO | > 200 µM | > 200 µM |  |
| N#Cc1c(/N=C/c2cc(Cl)cc(Cl)c2O)sc2c1CCC2 | > 200 µM | > 200 µM |  |
| C=C1C(=O)O[C@H]2C1[C@H](OC(=O)/C(C)=C\COC(C)=O)C[C@]1(CO1)[C@@H]1[C@H](O)[C@H]3O[C@@]3(C)[C@@H]12 (stereo partly drawn) |  |  | inactive |
| Cc1cc(SCC(=O)c2ccccc2[N+](=O)[O-])cc(C)[o+]1 | > 200 µM | 77.6 µM |  |
| O=C(OCC1CC(C2(O)CCCCC2)C(=O)O1)c1ccccc1 (stereo not drawn) | > 200 µM | > 200 µM |  |
| Cc1ccc(S(=O)(=O)Nc2ccccc2SSc2ccccc2NS(=O)(=O)c2ccc(C)cc2)cc1 | > 200 µM | 4.57 µM |  |
| CC(=O)Nc1cc(N=Nc2ccc(N=Nc3ccc(NC(=O)c4ccc(N)cc4)cc3C)cc2C)c(S(=O)(=O)O)cc1N=Nc1cccc(C(=O)O)c1 | 20.9 µM | 170 µM |  |
| N#C[C@H](C(=O)c1ccccc1F)c1nc2ccccc2s1 | > 200 µM | 93.3 µM |  |
| COc1ccc2cc(C(C)C(=O)N3C(=O)OCC3(C)C)ccc2c1 (stereo not drawn) | > 200 µM | 91.2 µM |  |
| Nc1nc(Cl)cc(OCC2(CO)CCCC2)n1 | > 200 µM | 110 µM |  |
